Measurements published in US20190111154A1, “TREATMENT OF NEUROPATHY WITH DNA CONSTRUCT EXPRESSING HGF ISOFORMS WITH REDUCED INTERFERENCE FROM GABAPENTINOIDS” (ViroMed Co., Ltd., priority 2017, published 2019).

How the values were obtained:
[1] = Von Frey filament test in chronic constriction injury (CCI) mice, Example 1; assay type: in vivo; conditions: for paw withdrawal frequency: day 14-16
Experimental: FIG. 2 illustrates the experimental procedure for testing effects of gabapentin on VM202-mediated pain reduction using chronic constriction injury (CCI) mice. Surgical procedure on sciatic nerve (CCI or sham) was performed and a plasmid (pCK or VM202) was administered to 5-week-old male mice on day 0, gabapentin or PBS was injected daily to the mice from day 1 to day 15, and their pain levels were measured by von Frey filament test starting on day 14 through 16.
In order to explore the mechanisms behind the gabapentinoid interference with VM202 efficacy, we tested effects of gabapentin on VM202-mediated pain reduction in chronic constriction injury (CCI) mice as presented in FIG. 2. CCI is an animal model widely used for studying neuropathic pain. Specifically, chronic constriction injury (CCI) was introduced by applying loosely constrictive ligatures to the sciatic nerve of 5 week-old male mice. The CCI mice were divided into three groups—in the first group, 200 μg of pCK vector was administered into the cranial thigh muscles as a negative control for VM202 administration (pCK is the vector used in VM202, but lacks the HGF vector payload), in the second group, 200 μg of VM202 was administered into the cranial thigh muscles, and in the third group, no DNA construct was administered. Animals in each of the first and the second group were further divided into two subgroups, with the first subgroup injected daily with 100 mg/kg of gabapentin and the second subgroup injected daily with PBS as a negative control for gabapentin administration, via intraperitoneal cavity for two weeks. The sham group without CCI was also maintained and daily injected with PBS. From day 14 to day 16, Von Frey filament test was performed to assess the level of neuropathic pain (mechanical allodynia).

[2] = Nerve pinch test in nerve crush mouse model; assay type: in vivo, mice; conditions: day 7
Experimental: FIG. 5 illustrates the experimental procedure for testing gabapentin effects on VM202-mediated nerve regeneration in a nerve crush mouse model. Nerve crush was induced and VM202 administered to 9-week old male C57BL/6 mice on day 1, gabapentin was injected daily from day 2 to day 6, and nerve pinch test was conducted on day 7.
Effects of gabapentinoids on VM202-mediated nerve regeneration were tested in a nerve crush animal model. The protocol is schematized in FIG. 5. Specifically, nerve crush was introduced to 9-week-old C57BL/6 mice by giving brief pressure to their sciatic nerve. On the same day (day 1), the mice were injected with 200 μg of VM202 to the cranial thigh muscles right after the nerve crush. From the next day (day 2), 100 mg/kg gabapentin was administered daily.
On day 7, a nerve pinch test was performed to quantify functional recovery of the injured nerve. For the nerve pinch test, light anesthesia was induced and sciatic nerve was exposed. The injured nerve was pinched from its distal to proximal direction until a reflex response was observed. The distance was then measured between the injury site and the foremost site that produced the response. The distance measured by this method represents the length of regenerated nerves, which is provided on the y-axis in FIG. 6.

c-Jun = assay: Western blot of c-Jun in dorsal root ganglion (DRG) cells of nerve crush mice; assay type: in vivo, mouse
Source text: Expressions of c-Jun (top) and GAPDH (bottom) were detected by antibodies specific to each protein. FIG. 7B provides relative levels of c-Jun expression in each sample, calculated by measuring band intensity of c-Jun and comparing the intensity with the band intensity of GAPDH.
c-Jun is well established to be a key factor involved in nerve regeneration, and has been used as a marker for that process. Expression of c-Jun protein prepared from dorsal root ganglion (DRG) cells obtained from a sham mouse (“Sham”) or from a nerve crush mouse (“Crush”) was measured by Western blot assay, using an antibody against c-Jun. […] VM202 treatment further increased c-Jun expression level by 1.3-fold (compare lanes 2 and 3 of FIG. 7A), but such induction was not observed when mice were exposed to gabapentin (compare lanes 5 and 6 of FIG. 7A). The western blot assay results were quantified based on the band intensities and presented in FIG. 7B for their analysis and comparison.

[3] = Von Frey filament test in CCI mice, gabapentin at different time points, Example 4; assay type: in vivo
Experimental: The effects of gabepentinoid administration at different time points relative to VM202 administration were tested in chronic constriction injury (CCI) mice.
After CCI surgery, the development of mechanical allodynia was assessed using a Von Frey's filament test once a week, and the level of pain reduction fold was calculated based on the mechanical frequency evaluation. Briefly, animals were placed individually in a cylinder on top of a metal mesh floor for adaptation. To examine the frequency of mechanical sensitivity, mice were assessed by stimulating the hind paw using constant thickness of the filament (0.16 g).
To further understand the delay required to prevent the interference, in a further experiment, CCI mice injected with VM202 were treated with gabapentin after delays for various periods ranging from 0 to 14 days. CCI mice were injected with VM202 or pCK on day 0. The CCI mice were treated with no gabapentin (CONT1, CONT2) or additionally treated with gabapentin starting on day 0 (on the day of VM202 injection, GP1) or day 3 (GP2), day 7 (GP3) or day 10 (GP4) after VM202 injection.
Two weeks after CCI surgery and VM202 or pCK injection, the development of mechanical allodynia was assessed using a Von Frey's filament test, and the level of pain reduction fold was calculated based on the mechanical frequency evaluation for each animal.

[4] = cited from earlier work
[5] = CCI mice given pCK and daily 100 mg/kg gabapentin i.p.

NCC1(CC(=O)O)CCCCC1 [gabapentin]
duration of pain relieving effects [1, 5]: about 6 hours
pain level (paw withdrawal frequency) [1, 5]: decreases in pain levels immediately after the gabapentin administration

VM202: plasmid DNA, HGF-X7 cloned into the pCK vector (SEQ ID NO: 11), expresses flHGF and dHGF; KCCM-10361
pain level (paw withdrawal frequency) ([1]; CCI mice, 200 μg VM202, no gabapentin, throughout the experimental period): significantly lower pain levels
paw withdrawal frequency ([1]; CCI mice, 200 μg VM202 i.m. plus daily 100 mg/kg gabapentin i.p.): 46.1%
paw withdrawal frequency ([1]; CCI mice, 200 μg VM202 i.m., no gabapentin): 30.56%
time over which pain level increased close to the pCK-PBS level after gabapentin injection ([1]; VM202-treated CCI mice, daily 100 mg/kg gabapentin): about 10 hours
compromise of the pain reduction effect of VM202 by gabapentin ([1]; daily 100 mg/kg gabapentin i.p.): more than 50%
length of regenerated nerve ([2]; 200 μg VM202, daily 100 mg/kg gabapentin): 1.95±0.3 mm
length of regenerated nerve ([2]; 200 μg VM202, daily PBS): about 4±0.2 mm
length of regenerated nerve, fold versus pCK control ([2]; daily PBS): approximately 2.7 fold
increase of nerve regeneration, fold versus pCK control group ([2]; in the presence of daily gabapentin): 2.3 fold
increase of c-Jun expression level versus nerve crush mice given pCK (c-Jun; daily PBS (lanes 2 and 3)): 1.3 fold
induction of c-Jun expression versus nerve crush mice given pCK (c-Jun; mice exposed to gabapentin (lanes 5 and 6)): not observed
pain level versus CCI-pCK ([3]; CCI-VM202-Gaba1: gabapentin from day 0 to day 14): no effects
pain level from day 14 to 28, after gabapentin stopped ([3]; CCI-VM202-Gaba1: gabapentin from day 0 to day 14, none afterwards): continued to have high level of pains
pain relieving effects ([3]; CCI-VM202-Gaba2: gabapentin from day 15 to day 28): significant and maintained
pain level versus CCI-pCK ([3]; CCI-VM202: 200 μg/head VM202 day 0, no gabapentin): significantly reduced the pain level
pain reducing effect two weeks after CCI surgery ([3]; CONT2: no gabapentin): significant pain relief
pain reducing effect two weeks after CCI surgery ([3]; GP1: 100 mg/kg gabapentin started day 0): did not have significant pain reducing effects
pain reducing effect two weeks after CCI surgery ([3]; GP2: 100 mg/kg gabapentin started day 3): did not have significant pain reducing effects
pain reducing effect two weeks after CCI surgery ([3]; GP3: 100 mg/kg gabapentin started day 7): did not have significant pain reducing effects
pain reducing effect two weeks after CCI surgery ([3]; GP4: 100 mg/kg gabapentin started day 10): significant pain relief
pain in patients with diabetic peripheral neuropathy ([4]; injections into the calf muscle, two days of treatment spaced two weeks apart): significantly reduce pain
reduction in pain from baseline, patients not on Lyrica and/or Neurontin versus total patient group ([4]; low dose of VM202 (total 16 mg), 3, 6, 9 months): larger reduction in pain
pain relief in patients not taking pregabalin or gabapentin versus patients taking a gabapentinoid ([4]; post hoc analysis of phase II data): more effective in relieving pain in patients not taking pregabalin or gabapentin
duration of symptomatic relief with improvement in quality of life ([4]; two days of treatment, spaced two weeks apart): 3 months
